This passage reports Ratio results from ChEMBL document CHEMBL1129043, “Preparation of phenolic paclitaxel metabolites” (J Med Chem, 1996).

This data set is described as follows: Ratio of ED50 for cytotoxicity against B16 melanoma to paclitaxel. Particulars: mouse.

Turning to `CC(=O)O[C@H]1C(=O)[C@@]2(C)[C@H]([C@H](OC(=O)c3cccc(O)c3)[C@]3(O)C[C@H](OC(=O)[C@H](O)[C@@H](NC(=O)c4ccccc4)c4ccccc4)C(C)=C1C3(C)C)[C@]1(OC(C)=O)CO[C@@H]1C[C@@H]2O`, the Ratio is listed as greater than 20.
